The data set can be described thus: method code SF-AS, from DOI: 10.1016/0021-9673(94)85294-4.

SMILES strings stand for the structures.

For orientation: logP means the decadic logarithm of the partition coefficient of the neutral form, usually between octanol and water. A higher logP goes with higher lipophilicity. In turn, `COC(=O)c1cccn1C` had a logP of 1.8. To `CCCNC(=O)c1ccoc1` belongs 1.2. Next, `NC(=O)c1ccc[nH]1`: 0.09. `CCNC(=O)c1cc2ccccc2[nH]1` had a logP of 2.32. As for `CNC(=O)c1cc2ccccc2o1`, the logP came out at 1.85.

The compound `CNC(=O)c1cccn1C` displayed a lipophilicity (logP) of 0.71. To `CCCOC(=O)c1ccoc1` belongs 2.36; to `CCOC(=O)c1ccc[nH]1`, 1.73; to `NC(=O)c1cc2ccccc2o1`, 1.54. To `CNC(=O)c1c[nH]c2ccccc12` belongs 1.25; to `CCCNC(=O)c1cc2ccccc2[nH]1`, 2.8. For `CCOC(=O)c1cc2ccccc2o1`, the logP worked out at 3.05.

Consider `CCNC(=O)c1ccccc1`, for which the logP was 1.28. Compound `CCNC(=O)c1cccn1C` registered a logP of 1.09.

The compound `CCCNC(=O)c1ccccc1` had a logP of 1.72. As to `CCNC(=O)c1c[nH]c2ccccc12`, the logP is 1.62. As to `Cn1cccc1C(N)=O`, the logP came to 0.45. As to `CCCNC(=O)c1ccc[nH]1`, the logP was found to be 1.25. On to `COC(=O)c1cc2ccccc2[nH]1`, for which the logP amounted to 2.78.

Compound `CCNC(=O)c1ccc[nH]1` had a logP of 0.8.

Turning to `CNC(=O)c1cc2ccccc2[nH]1`, the logP is 1.9. Compound `CCCNC(=O)c1ccco1` yielded a logP of 1.1.

`CNC(=O)c1ccc[nH]1` registered a logP of 0.42. Next, `CCCNC(=O)c1cc2ccccc2o1`: 2.65; `NC(=O)c1cc2ccccc2[nH]1`: 1.61; `CCCNC(=O)c1cccn1C`: 1.63. As to `CCNC(=O)c1cc2ccccc2o1`, the logP is 2.22.
